Test results as given in patent publication US11065226B2, “Combination comprising EP4 antagonist and immune checkpoint inhibitor” (ONO PHARMACEUTICAL CO., LTD., priority 2016, dated 2021).
Blank lines part the entries; values can stand above or below the compound they belong to.

Assays:
[1] = tested on: mouse colorectal cancer cell line MC38; assay: Combination therapy with Example 2-2 and anti-mouse PD-1 antibody in allograft model of MC38; type: in vivo; details: female C57BL/6 mice, Example 2-2 3 mg/kg orally twice a day day 8 to 24, anti-mouse PD-1 antibody i.p. 20 mg/kg day 8, 10 mg/kg day 14 and 20
Method: (§1) The effect of the combination therapy with the compound of Example 2-2 and an anti-mouse PD-1 antibody was evaluated in an allograft model of a mouse colorectal cancer cell line, MC38 (Cancer Res. (1975), 35(9), p 2434-9). The MC38 cells were cultured in a DMEM medium containing 10 vol % FBS, 100 units/mL penicillin, and 100 μg/mL streptomycin in a CO2 incubator. On the day of transplantation, the culture supernatant was removed, and then the MC38 cells were washed with PBS and collected. The collected MC38 cells were suspended in PBS and used as transplant cells. Under anesthesia, 1,000,000 transplant cells were subcutaneously transplanted into the right lateral abdominal regions of female C57BL/6 mice. On day 8 after the transplantation, the mice were divided into four groups of a vehicle group, an Example 2-2 compound-single therapy group, an anti-mouse PD-1 antibody-single therapy group, and a combination therapy group (the compound of Example 2-2 and the anti-mouse PD-1 antibody), each containing 10 individuals. […] The tumor volumes (mm^3) were calculated by the following equation from the tumor lengths along the minor axis and the major axis which were measured using a digital caliper. […]

rat EP4 receptor = target: T1, rat EP4 receptor (Rattus norvegicus, UniProt P43114); assay: EP4 antagonistic activity measurement using prostanoid receptor subtype-expressing cells (cAMP, PGE2 10 nM); type: cell-based; details: CHO cells expressing rat EP4 receptor; inhibition of cAMP production by PGE2 10 nM; 30 minutes at room temperature
T1 construct: expressed in transfected cells; host or cells: CHO cells
Method: CHO cells expressing rat EP4 receptor subtypes were prepared according to the methods of Nishigaki et al. (Non-Patent Document 4) and used for experiment. Cultured subconfluent cells were detached and suspended in an assay medium (MEM containing 1 mmol/L IBMX, 1% HSA) in a concentration of 1×10^6 cells/mL. To start the reaction, PGE2 was added to the cell suspension (25 μL) in a final concentration of 10 nmol/L, either alone or as a 25-μL PGE2 solution containing a test compound. After 30 minutes of reaction at room temperature, the amount of cAMP in the cells was quantified according to the method in the descriptions of the cAMP assay kit (CISBIO).
The antagonistic effect (IC50 value) of the test compound was calculated as a value that represents an inhibition rate against a reaction with PGE2 alone at 10 nM, a concentration that produces a submaximal cAMP producing effect.

[2] = tested on: mouse colorectal cancer cell line CT26; assay: Combination therapy with Example 2-13 and anti-mouse PD-1 antibody in allograft model of CT26; type: in vivo; details: female BALB/c mice, Example 2-13 5 mg/kg orally twice a day day 7 to 21, anti-mouse PD-1 antibody i.p. 3 mg/kg day 7, 10, 14, 17
Method: (§2) The effect of the combination therapy with the compound of Example 2-13 and an anti-mouse PD-1 antibody was evaluated in an allograft model of a mouse colorectal cancer cell line, CT26 (Cancer Res. (2013), 73(12), p3591-603). The CT26 cells were cultured using a RPMI medium containing 10 vol % FBS, 2 mmol/L Glutamax, 100 units/mL penicillin, and 100 μg/mL streptomycin in a CO2 incubator. On the day of transplantation, the culture supernatant was removed, and then the CT26 cells were washed with PBS and collected. The collected CT26 cells were suspended in PBS and used as transplant cells. Under anesthesia, 1,000,000 transplant cells were subcutaneously transplanted into the right lateral abdominal regions of female BALB/c mice. On day 7 after the transplantation, the mice were divided into four groups of a vehicle group, an Example 2-13 compound-single therapy group, an anti-mouse PD-1 antibody-single therapy group, and a combination therapy group (the compound of Example 2-13 and the anti-mouse PD-1 antibody), each containing 15 to 18 individuals. […] The tumor volumes (mm^3) were calculated by the following equation from the tumor lengths along the minor axis and the major axis and the tumor height which were measured using a digital caliper. […]

[3] = tested on: mouse colorectal cancer cell line MC38; assay: Combination therapy with Example 2-13 and anti-mouse PD-1 antibody in allograft model of MC38; type: in vivo; details: female C57BL/6 mice
Method: as §1, with “Example 2-13” for “Example 2-2”, “and 100}μg/mL” for “and 100 μg/mL”, “anesthesia, 200,000” for “anesthesia, 1,000,000”, “day 7” for “day 8”

[4] = tested on: mouse fibrosarcoma cell line SalN; assay: Combination therapy with Example 2-13 and anti-mouse PD-1 antibody in allograft model of SalN; type: in vivo; details: female A/J mice, Example 2-13 5 mg/kg orally twice a day day 7 to 21, anti-mouse PD-1 antibody i.p. 3 mg/kg day 7, 10, 14, 17
Method: The effect of the combination therapy with the compound of Example 2-13 and an anti-mouse PD-1 antibody was evaluated in an allograft model of a mouse fibrosarcoma cell line, SalN (Cancer Res. (2012), 72(4), p 917-27). The SalN cells were cultured using a DMEM medium containing 10 vol % FBS, 2 mmol/L Glutamax, 100 units/mL penicillin, and 100 μg/mL streptomycin in a CO2 incubator. On the day of transplantation, the culture supernatant was removed, and then the SalN cells were washed with PBS and collected. The collected SalN cells were suspended in PBS and used as transplant cells. Under anesthesia, 2,000,000 transplant cells were subcutaneously transplanted into the right lateral abdominal regions of female A/J mice. On day 7 after the transplantation, the mice were divided into four groups of a vehicle group, an Example 2-13 compound-single therapy group, an anti-mouse PD-1 antibody-single therapy group, and a combination therapy group (the compound of Example 2-13 and the anti-mouse PD-1 antibody), each containing 15 individuals. […] The tumor volumes (mm^3) were calculated by the following equation from the tumor lengths along the minor axis and the major axis and the tumor height which were measured using a digital caliper. […]

[5] = tested on: mouse colorectal cancer cell line MC38; assay: Combination therapy with Example 2-13 and anti-mouse CTLA-4 antibody in allograft model of MC38; type: in vivo; details: female C57BL/6 mice, Example 2-13 5 mg/kg orally twice a day day 7 to 28, anti-mouse CTLA-4 antibody i.p. 10 mg/kg day 7, 10, 14, 17
Method: as §2, with “CTLA-4” for “PD-1”, “MC38.” for “CT26 (Cancer Res. (2013), 73(12), p3591-603).”, “MC38” for “CT26”, “DMEM” for “RPMI”, “C57BL/6” for “BALB/c”, “15” for “15 to 18”

T1 sequence (P43114 whole entry): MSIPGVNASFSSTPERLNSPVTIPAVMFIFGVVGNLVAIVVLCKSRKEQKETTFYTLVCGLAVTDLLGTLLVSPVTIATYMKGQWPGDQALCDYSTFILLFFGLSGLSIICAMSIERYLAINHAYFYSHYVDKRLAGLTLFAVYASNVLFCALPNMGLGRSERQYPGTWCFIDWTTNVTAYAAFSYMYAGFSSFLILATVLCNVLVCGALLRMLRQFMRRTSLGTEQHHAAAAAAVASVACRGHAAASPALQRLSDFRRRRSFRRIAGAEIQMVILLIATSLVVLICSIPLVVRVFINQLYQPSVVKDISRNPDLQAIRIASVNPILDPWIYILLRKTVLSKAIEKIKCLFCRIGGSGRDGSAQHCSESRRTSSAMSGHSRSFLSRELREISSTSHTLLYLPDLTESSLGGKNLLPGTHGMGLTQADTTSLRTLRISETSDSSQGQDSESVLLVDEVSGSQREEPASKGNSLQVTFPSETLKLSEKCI

SMILES: COCCNC(=O)c1ccc2c(c1)[C@]1(CCO2)C[C@H]1C(=O)Nc1cc(C#N)ccc1CCCC(=O)O [Example 2-2]
- tumor growth (tumor volume, FIG. 2) [1]: inhibited the tumor growth alone

- IC50 (rat EP4 receptor): 1.3 nM
SMILES: Cn1cc(NC(=O)c2ccc3c(c2)[C@]2(CCO3)C[C@H]2C(=O)Nc2cc(C#N)ccc2CCCC(=O)O)cn1 [Example 2-5]

SMILES: CC(C)NC(=O)c1ccc2c(c1)[C@]1(CCO2)C[C@H]1C(=O)Nc1cc(C#N)ccc1CCCC(=O)O [Example 2-13, 4-[4-cyano-2-({[(2′R,4S)-6-(isopropylcarbamoyl)-2,3-dihydrospiro[chromene-4,1′-cyclopropan]-2′-yl]carbonyl}amino)phenyl]butanoic acid]
- tumor growth (tumor volume, FIG. 5) [2]: inhibited the tumor growth alone
- Cases of Disappearance of Tumor/Cases ([3]; Example 2-13 3 mg/kg orally twice a day to day 28, anti-mouse PD-1 antibody i.p. 20 mg/kg day 7, 10 mg/kg day 13 and 19): 0/10
- tumor growth (tumor volume, FIG. 1) ([3]; Example 2-13 3 mg/kg orally, anti-mouse PD-1 antibody i.p. 20 mg/kg then 10 mg/kg): inhibited the tumor growth alone
- tumor growth (tumor volume, FIG. 4) [4]: inhibited the tumor growth alone
- tumor growth (tumor volume, FIG. 3) [5]: inhibited the tumor growth alone
